Data on 78 compounds can be found in PubChem BioAssay AID504646 (Southern Research Specialized Biocontainment Screening …, 2011).

Assay [1] in a line: M. tuberculosis growth inhibition in 7H9, dose response, 7H9 media, purified and synthesized samples, set 3 (AID 504646). The note with it: Mycobacterium tuberculosis growth in 7H9 media; at 25 µM (top of the series).
Assay [2] relates to Mycobacterium tuberculosis growth in 7H9 media. The description is as above. As to conditions: for IC90: 90% growth inhibition concentration.

pIC50: −log10 of the molar value. Several values for one entry are separate records, joined by “and”; a condition that tells them apart may be missing. Equal values may be shown once. Activity calls are given as the source filed them. How the calls were made is not given here. Peptide text beside a SMILES is read from it. * marks the point of attachment. Cbz = O=C(OCc1ccccc1)*

Take `COC(=O)C(Nc1nc(SCC(=O)NC2CCCCC2)nc2ccccc12)c1ccccc1` (centres undefined): the growth inhibition in assay [1] is -0.22% (inactive). On to `CCc1cc(=O)[nH]c(SCC(=O)Nc2ccc3c(c2)OCCO3)n1`, for which the growth inhibition in assay [1] is 3.59% (inactive). In the case of `Cc1[nH]c(=S)[nH]c(=O)c1C`, in assay [1], the growth inhibition is -8.11% (inactive). On to `CCOC(=O)C(CC)Sc1ncnc2c1nnn2-c1ccc(F)cc1` (centres undefined), for which the growth inhibition in assay [1] was 12.2% (inactive). `CCOC(=O)N1CCC(Nc2c(N3CCN(c4cccc(C(F)(F)F)c4)CC3)c(=O)c2=O)CC1`: the growth inhibition in assay [1] is -1.75% (inactive). As to `CCOC(=O)N1CCC(Nc2c(Nc3cccc(CC)c3)c(=O)c2=O)CC1`, in assay [1], the growth inhibition was 17.3% (inactive). Take `O=C(CSc1ncccn1)NC1CCCCC1`: the growth inhibition in assay [1] was -5.77% (inactive). With `Cc1[nH]c2ccccc2c1C(=O)COC(=O)c1ccc([N+](=O)[O-])s1`, the growth inhibition in assay [1] is -5.99% (inactive). As for `CCC(Sc1nc(=O)cc(N)n1-c1ccccc1)C(=O)Nc1cc(C)on1` (centres undefined), the growth inhibition in assay [1] is -3.83% (inactive). As for `CCc1c(O)nc(SCC(=O)Nc2ccc(OC)cc2)n(C2CCCCC2)c1=O`, the growth inhibition in assay [1] is -2.19% (inactive). The same measure, in the same setting: then `O=C(CSc1ccccn1)NC1CCCCC1`, with -4.91% (inactive). In the case of `COC(=O)c1ccc(CNc2c(N3CCCC3)c(=O)c2=O)cc1`, in assay [1], the growth inhibition was -13.4% (inactive). For the compound `CC(NC(=O)CSc1nc2ccccc2c(=O)[nH]1)c1ccccc1` (centres undefined), in assay [1], the growth inhibition was -9.84% (inactive). Take `O=c1[nH]c(=S)[nH]c2ccccc12`: in assay [1], the growth inhibition was -8.06% (inactive). As for `Cc1nc(SCC(N)=O)[nH]c(=O)c1C`, the growth inhibition in assay [1] was -2.97% (inactive). `Cc1ccc(NC(=O)CSc2nc(N)c(-c3ccccc3)c(=O)[nH]2)cc1Cl`: the growth inhibition in assay [1] was -2.34% (inactive).

As a reminder, the pIC50 is −log10 of the IC50, conventionally taken in molar units. Usually IC90 stands for the concentration at which the effect reaches the 90% level. Low values mean greater potency, high ones weaker potency. Take `CC1CCCN(C(=O)C2CCC(CNc3c(N4CCCCC4)c(=O)c3=O)CC2)C1` (centres undefined): in assay [2], the pIC50 is 4.94 and the IC90 was more than 25000 nM.

Regarding `O=C(CSc1nc2ccccc2c(=O)[nH]1)NC1CCCCC1`, in assay [2], the pIC50 is 7.40 and the IC90 was 80 nM.

As for `CCOC(=O)c1ccc(NC(=O)Cn2ncc(Cl)c(Cl)c2=O)cc1`, in assay [2], the pIC50 is 6.48 and the IC90 is 1200 nM. With `C=CCn1c(SCC(=O)Nc2cccc3ccccc23)nc(O)c(CC)c1=O`, the growth inhibition in assay [1] was 26.9% (inactive). With `COC(=O)CCc1nc2c(C#N)c(-c3ccc(Cl)cc3)ccn2n1`, in assay [2], the pIC50 was 5.59 and the IC90 was determined as 3660 nM. Regarding `CCOc1ccc2nc(NC(=O)C(CC)Sc3nc(C)cc(=O)[nH]3)sc2c1` (centres undefined), the growth inhibition in assay [1] is 2.52% (inactive). Consider `Cc1ccc(NC(=O)CSc2nc(N)cc(=O)[nH]2)cc1Cl`, for which, in assay [1], the growth inhibition is 2.55% (inactive).

In the case of `CCOc1ccc(-c2cc(C)[n+](CCc3ccc(OC)c(OC)c3)c(-c3ccc(OCC)cc3)c2)cc1`, in assay [2], the pIC50 is 6.22 and the concentration for an effect of 90% (IC90) worked out at 900 nM. Take `CCOc1ccc(NC(=O)c2ccc(CNc3c(N4CCCC4)c(=O)c3=O)cc2)cc1`: the growth inhibition in assay [1] was 0.32% (inactive). On the same count and under the same terms, the value for `CCOC(=O)CSc1nc(C)c(C)c(=O)[nH]1` was -7.78% (inactive). For the compound `Cc1cc(C)n2nc(N)c(N=Nc3ccccc3)c2n1`, in assay [2], the pIC50 was 5.56 and the IC90 amounted to 3690 nM. On the same counts, the results for `Cc1cc(Br)ccc1NC(=O)c1cnc(N2CCN(c3ccccn3)CC2)c2ccccc12` are 6.55 and 2610 nM. As to `CC1CCCN(C(=O)c2ccc(CNc3c(N4CCCCC4)c(=O)c3=O)cc2)C1` (centres undefined), in assay [2], the pIC50 is 5.86 and the IC90 is more than 25000 nM. For `CNc1nc(SCc2ccccc2Cl)nc2c1CCCC2`, in assay [2], the negative-log IC50 (pIC50) is 5.94 and the IC90 turned out to be 3010 nM. In the case of `Oc1ccccc1/C=N/Nc1ccnc(SCc2ccccc2)n1`, the growth inhibition in assay [1] is 2.73% (inactive). Consider `O=C(/C=C\c1cccs1)N1CCN(Cc2ccc3c(c2)OCO3)CC1`, for which, in assay [2], the pIC50 is 6.03 and the IC90 is more than 25000 nM.

As for `Cc1cccc(/C=C/C(=O)c2ccc([N+](=O)[O-])o2)c1`, in assay [2], the pIC50 is 7.00 and the IC90 is 170 nM.

For the compound `O=C(CSc1nc2c(c(=O)[nH]1)CCC2)Nc1ccc(F)cc1`, in assay [2], the pIC50 is 5.00 and the concentration for an effect of 90% (IC90) was 17100 nM. Take `COc1ccc(-c2noc(CSc3nc(N)c(-c4ccccc4)c(=O)[nH]3)n2)cc1OC`: the growth inhibition in assay [1] is -5.09% (inactive). `CCOC(=O)CSc1ncnc2c1cnn2-c1ccc(C)cc1C`: in assay [2], the pIC50 was 5.33 and the IC90 was 7470 nM.

As to `Nc1cc(=O)[nH]c(SCC(=O)Nc2ccccc2-c2ccccc2)n1`, the growth inhibition in assay [1] is -1.58% (inactive). As to `CCC(Sc1ncnc2c1nnn2-c1ccc(F)cc1)C(=O)OC` (centres undefined), in assay [2], the pIC50 was 5.02 and the concentration for an effect of 90% (IC90) was more than 25000 nM.

`COC(=O)C1CC(=O)N(c2ccc(OCc3ccccc3Cl)cc2)C1` (centres undefined): in assay [2], the pIC50 is 6.33 and the IC90 was 2740 nM. As for `Cc1nc(SCC(=O)NC2CCCC2)[nH]c(=O)c1C`, in assay [2], the pIC50 is 5.10 and the IC90 is 13400 nM.

Turning to `O=C(c1ccc(CNc2c(N3CCCC3)c(=O)c2=O)cc1)N1CCN(C2CCCCC2)CC1`, the IC90 in assay [2] was more than 25000 nM. `CCOC(=O)CSc1ncnc2c1cnn2-c1ccccc1`: in assay [2], the pIC50 is 4.95 and the IC90 was more than 25000 nM. As to `Cc1ccc(NC(=O)C2C3/C=C\CCCCC32)cc1C` (centres undefined), in assay [2], the pIC50 is 5.84 and the IC90 is more than 25000 nM. Turning to `CCc1c(C)nc(SCC(=O)NC2CCCC2)[nH]c1=O`, in assay [2], the pIC50 was 5.82 and the IC90 was 2850 nM. For the compound `COC(=O)C(C)Oc1ccc(-c2nccc(-c3ccccn3)n2)cc1` (centres undefined), in assay [2], the pIC50 is 5.68 and the IC90 is 4130 nM. In the case of `O=C(/C=C/c1ccccc1)N1CCN(CCN2C(=O)c3cccc4cccc(c34)C2=O)CC1`, in assay [2], the pIC50 was 5.67 and the IC90 came out at 4970 nM. Turning to `Nc1cc(=O)[nH]c(SCC(=O)Nc2ccc(Oc3ccccc3)cc2)n1`, in assay [1], the growth inhibition was -0.36% (inactive).

As to `COc1ccc(-n2nnc3c(SCC(=O)OCc4ccccc4)ncnc32)cc1`, in assay [2], the pIC50 was 5.79 and the IC90 was more than 25000 nM. On to `CCSc1nc2ccccc2c(=O)[nH]1`, for which the growth inhibition in assay [1] was -4.76% (inactive). Turning to `O=C(NCC(c1cccs1)N1CCOCC1)c1cc([N+](=O)[O-])cc([N+](=O)[O-])c1` (centres undefined), in assay [2], the negative-log IC50 (pIC50) is 6.68 and the IC90 amounted to 580 nM. As for `CC1CCN(C(=O)C2CCN(c3nnc(-n4cccc4)s3)CC2)CC1`, in assay [2], the pIC50 is 5.81 and the IC90 is 2910 nM. Consider `Cc1cc(C)cc(NC(=O)CSc2nc3c(c(=O)[nH]2)CN(Cc2ccc(F)cc2)CC3)c1`, for which the growth inhibition in assay [1] was -0.33% (inactive). For the compound `Cc1cc(=O)[nH]c(=S)[nH]1`, in assay [1], the growth inhibition was -1.28% (inactive). As for `Cc1ccc(C(=O)N/N=C(/CC(=O)c2cccs2)C(F)(F)F)cc1`, in assay [2], the negative logarithm of the IC50 (pIC50) is 5.81 and the IC90 came to 2370 nM. For `CC1CC(C)CN(C(=O)C2CCC(CNc3c(N4CCCCC4)c(=O)c3=O)CC2)C1` (centres undefined), in assay [2], the negative-log IC50 (pIC50) was 5.11 and the IC90 was more than 25000 nM. As to `CC1CCN(C(=O)CSc2nc3ccccc3c(=O)[nH]2)CC1`, the growth inhibition in assay [1] was 2.14% (inactive).

As for `CCOC1OC(=O)C(Cl)=C1Nc1ccccc1C` (centres undefined), in assay [2], the pIC50 is 5.64 and the IC90 was more than 25000 nM. Turning to `O=C(NCC1COc2ccccc2O1)C1CCC(CNc2c(N3CCCCC3)c(=O)c2=O)CC1` (centres undefined), the 90% effect concentration (IC90) in assay [2] is more than 25000 nM.

Consider `O=C(C1CCC(CNc2c(N3CCCCC3)c(=O)c2=O)CC1)N1CCCCC1` (centres undefined), for which the growth inhibition in assay [1] is -2.59% (inactive). In the case of `Cc1cccc(N2CCN(C(=O)c3ccc(CNc4c(N5CCC(C)CC5)c(=O)c4=O)cc3)CC2C)c1` (centres undefined), the growth inhibition in assay [1] is -1.5% (inactive). As for `CC(C)OC(=O)CSc1ncnc2c1cnn2-c1ccccc1`, in assay [2], the pIC50 was 4.98 and the concentration for an effect of 90% (IC90) is more than 25000 nM.

With `Cc1ccc2ccc3ccc(C)nc3c2n1`, in assay [2], the pIC50 was 6.74 and the IC90 amounted to 480 nM. `Cc1nc(SCc2ccccc2Cl)[nH]c(=O)c1C`: in assay [1], the growth inhibition is -6.95% (inactive).

Turning to `O=C(CSc1nc2ccccc2c(=O)[nH]1)NCc1ccc(Cl)cc1`, in assay [2], the pIC50 was 6.42 and 5.89; the IC90 was 670 nM and 2020 nM. Consider `Cc1nc(SCC(=O)N(C)c2ccccc2)[nH]c(=O)c1C`, for which the growth inhibition in assay [1] was -13.6% (inactive). As for `CCCc1cc(=O)[nH]c(SCC(=O)Nc2cc3c(cc2C(C)=O)OCO3)n1`, in assay [1], the growth inhibition is 3.07% (inactive).

For the compound `Cc1ccc(NC(=O)COC(=O)CCc2c[nH]c3ccccc23)cc1[N+](=O)[O-]`, in assay [2], the pIC50 is 5.94 and the IC90 worked out at 4230 nM.

For the compound `CCSc1nc(C)c(C)c(=O)[nH]1`, the growth inhibition in assay [1] is 1.07% (inactive). On to `Cc1nn2c(NCc3ccccn3)cc(C(C)C)nc2c1-c1ccccc1`, for which, in assay [2], the pIC50 is 5.91 and the IC90 turned out to be 1730 nM. In the case of `O=C(NCCc1ccc(Cl)cc1)c1ccc(CNc2c(N3CCOCC3)c(=O)c2=O)cc1`, in assay [2], the pIC50 was 5.33 and the IC90 is 6880 nM. Regarding `CCOC(=O)CSc1ncnc2c1cnn2-c1ccc(C)cc1`, in assay [2], the pIC50 is 5.16 and the IC90 is more than 25000 nM.

Turning to `CCOC(=O)CNC(=O)[C@H](Cc1ccccc1)NC(=O)OCc1ccccc1` (Cbz-Phe-Gly-OEt), in assay [2], the pIC50 is 5.97 and the 90% effect concentration (IC90) stood at 2960 nM. Consider `CCOc1ccc(NC(=O)CSc2nc(O)c(C)c(=O)n2-c2ccc(F)cc2)cc1`, for which, in assay [2], the pIC50 is 4.73 and the IC90 was more than 25000 nM. As for `COC(=O)c1cc(=O)n(-c2ccc(F)cc2)c(=Nc2ccc(F)cc2)s1`, in assay [2], the negative logarithm of the IC50 (pIC50) is 6.44 and the IC90 was found to be 1180 nM. On the same counts, the results for `CC1CCN(C(=O)c2ccc(CNc3c(N4CCCC4)c(=O)c3=O)cc2)CC1` are 5.24 and 6650 nM. With `CCc1c(C)nc(SCC(=O)Nc2ccc3c(c2)OCCO3)[nH]c1=O`, in assay [2], the negative-log IC50 (pIC50) is 4.85 and the IC90 was more than 25000 nM. Take `O=C(NCCc1ccc(Cl)cc1)C1CCC(CNc2c(N3CCCCC3)c(=O)c2=O)CC1` (centres undefined): in assay [2], the pIC50 is 4.69 and the concentration for an effect of 90% (IC90) was more than 25000 nM. Turning to `S=c1nc[nH]c2nc[nH]c12`, in assay [2], the pIC50 was 5.86 and the concentration for an effect of 90% (IC90) turned out to be 1960 nM.
